The source of these data is patent publication US10351525B2, “Beta lactamase inhibitors” (Oxford University Innovation Limited, priority 2014, dated 2019).

Where two headings read alike, the source gives them in different places.

Assay [1] has as its target T1, BcII (Bacillus cereus, UniProt P04190).
T1 construct: made in house; host or cells: Escherichia coli
Put plainly: MBL screening assay (IC50), BcII. It is filed as biochemical. How it is done: (§1) Recombinant forms of NDM-1, NDM-1 M67C, VIM-1, VIM-2, SPM-1, IMP-1 and BcII MBLs were produced in Escherichia coli as described in J. Med. Chem. 56, 6945-6953 (2013) and Makena et al Chem MechCHem 8, 1923-9 (2013). Purified VIM-2 protein was dialysed into fresh crystallization buffer (50 mM HEPES pH 7.5, 150 mM NaCl and […], concentrated to 7.5 mg/mL and used for crystallographic analyses.
(§2) Kinetic and inhibition analyses and UV-VIS studies^16 against bacterial MBLs were performed as described by Van Berkel et al in J. Med. Chem. 56, 6945-6953 (2013) and Makena et al Chem MechCHem 8, 1923-9 (2013).
(§3) The experiments were performed by using a NovaStar microplate reader (using path length correction) and were performed at r.t. (24-25° C.). All enzymes and substrates were dissolved in the assay buffer: 50 mM HEPES-NaOH buffer (pH 7.2) supplemented with 1 μg/mL BSA (to minimize the denaturation of the enzyme), 1 μM ZnSO4 and 0.01% Triton 100. Screening was carried out against a panel of MBLs including NDM-1, VIM-1, VIM-2, SPM-1 (Sao Paulo MBL-1) and IMP-1 and the non-clinically relevant model MBL Bacillus cereus (BcII).
(§4) The kinetic values determined were the means from at least three independent measurements. […] The IC50 values were determined from the plot of activity (steady state rate) versus inhibitor concentration using the same software. […]

Assay [2] concerns the target T2, hACE-2 (Homo sapiens, UniProt Q9BYF1).
T2 construct: purchased R&D Systems 933-ZN
Put plainly: hACE 2 assay. On Inhibition verdict: key: N.I.—not inhibited. The format is biochemical. The note with it: for remaining activity at 100 µM: read-out: RA (residual activity). As for the experimental part:
(§5) To investigate the selectivity of ML302/ML302F for bacterial MBLs, activity was tested against TEM-1 (a Class A SBL), PBP-5 (penicillin-binding protein 5 or dacA) and PBP-6 (penicillin-binding protein 6, or dacC) from E. coli, hHAT (human histone acetyltransferase) and hHDAC (human histone deacetylase). TEM-1, PBP-5 and -6 and hHAT are known to be inhibited by rhodanines. Selectively against hACE-2 (Angiotensin converting enzyme 2) and hHAGH (Hydroxyacylglutathione hydrolase, human Glyoxylase II) was also tested.
The inhibition analyses for human histone acetyltransferases (HAT), HDAC hHDAC (human histone deacetylase), hACE-2 (Angiotensin converting enzyme 2) and hHAGH (Hydroxyacylglutathione hydrolase, human Glyoxylase II) were performed using the commercially available HAT Assay Kit (Active Motif, catalogue No. 56100 (2009)), hHDAC (Active Motif, catalogue No. 56200 (2013)), hACE-2 (ACE-2 (R&D Systems) and hHAGH ((R&D Systems).
hACE 2 Assay (R&D systems):
• Assay Buffer: 75 mM Tris, 1 M NaCl, pH 7.5 • Recombinant Human ACE-2 (rhACE-2) (Catalog #933-ZN) • Substrate: MCA-Tyr-Val-Ala-Asp-Ala-Pro-Lys(DNP)-OH (Catalog # ES007), 10 mM stock in DMSO • F16 Black Maxisorp Plate (Nunc, Catalog #475515) • Fluorescent Plate Reader (Model: SpectraMax Gemini EM by Molecular Devices) or equivalent Assay: 1. Dilute rhACE-2 to 0.2 ng/μL in Assay Buffer. 2. Dilute Substrate to 40 μM in Assay Buffer. 3. Load in a black well plate 50 μL of […], and start the reaction by adding 50 μL of 40 μM Substrate. As a control load […] Substrate with 50 μL of Assay Buffer. 4. Read at excitation and emission wavelengths of 320 nm and 405 nm (top read), respectively in kinetic mode for 5 minutes. 5.

Assay [3] addresses T3, VIM-2 (Escherichia coli, UniProt Q5U7L7).
T3 construct: made in house; host or cells: Escherichia coli
To be noted: Spicer et al, NIH Probe Reports 2010, read-out: IC50 against VIM-2, reported value; cited from earlier work.

For assay [4], the target named is T4, VIM-1 (Pseudomonas aeruginosa, UniProt A0A0F7KYQ8).
T4 construct: made in house; host or cells: Escherichia coli
Put plainly: MBL screening assay (IC50), VIM-1. It is filed as biochemical. As for the experimental part: as §1, §2, §3, §4

For assay [5], the target named is TEM-1 (Escherichia coli, UniProt P62593). Put plainly: Inhibition studies TEM-1. On Inhibition verdict: key: N.I.—not inhibited. It is filed as biochemical. To be noted: for Inhibition verdict: TEM-1, 100 μM; for remaining activity at 100 µM: read-out: RA (residual activity). As for the experimental part: as §5
The inhibition analysis for TEM-1 was performed using the modified method that was previously described for MBLs.21 In brief: ML302 and ML302F were screened at a single concentration (100 μM) in duplicate. Inhibition was tested by pre-incubation of the appropriate amount of TEM-1 (1 nM final concentration) and ML302 or ML302F in the assay buffer (50 mM HEPES-NaOH buffer (pH 7.2) supplemented with 0.01% Triton 100) for 10 min. at r.t. prior to the initiation of the assay by the addition of FC5 ((6R,7R)-8-Oxo-3-(((2-oxo-2H-chromen-7-yl)oxy)methyl)-7-(2-phenylacetamido)-5-thia-1-azabicyclo[4.2.0]oct-2-ene-2-carboxylic acid 5,5-dioxide)21 (10 μM final concentration). The hydrolysis of FC5 was monitored by following the variation on fluorescence reading (380 nm—excitation and 460 nm—emission) using 384 well flat bottom plates (Greiner Bio-One). The experiments were performed on a PHERAstar FS-BMG Labtech microplate reader at r.t. (24-25° C.). All enzymes and inhibitors were prepared in the assay buffer.

Assay [6] deals with T3, VIM-2. Nature of the assay: MBL screening assay (IC50), VIM-2. It is filed as biochemical. As for the experimental part: as §1, §2, §3
The kinetic values determined were the means from at least three independent measurements. At least six different concentrations of the substrate or inhibitor were used to determinate the kinetic parameters (KM, kcat and IC50). Determination of the steady state kinetic parameters for the hydrolysis of different substrates (KM and kcat) was performed by fitting the initial velocity data to the Michaelis-Menten equation using the software package Graph Prism 5.01. The IC50 values were determined from the plot of activity (steady state rate) versus inhibitor concentration using the same software.
IC50 values (concentration required to affect 50% inhibition of enzyme activity) were determined by preincubation of the appropriate amount of enzyme with the desired compound in the assay buffer for 10 min at r.t. prior to the initiation of the assay by the addition of the substrate. The compounds for inhibition study were prepared in 1 to 100 mM DMSO stock solutions.

Assay [7] has as its system K. pneumoniae 120. Nature of the assay: MIC of MEM with and without ML302F (1:8), VIM-4 producer. The format is cell-based. To be noted: Klebsiella pneumoniae; K. pneumoniae 120 (VIM-4); MEM alone or with ML302F (1:8). How it is done: (§6) In a further study, antimicrobial activities of MEM and ML302F alone and in combination were assessed in-vitro against 31 VIM-producing clinical isolates.

For assay [8], the system named is E. coli 98. The assay is described as above. It is filed as cell-based. The note with it: Escherichia coli; E. coli 98 (VIM-4); MEM alone or with ML302F (1:8). As for the experimental part: as §6

Chain of TEM-1 (P62593 24-286 limits assumed): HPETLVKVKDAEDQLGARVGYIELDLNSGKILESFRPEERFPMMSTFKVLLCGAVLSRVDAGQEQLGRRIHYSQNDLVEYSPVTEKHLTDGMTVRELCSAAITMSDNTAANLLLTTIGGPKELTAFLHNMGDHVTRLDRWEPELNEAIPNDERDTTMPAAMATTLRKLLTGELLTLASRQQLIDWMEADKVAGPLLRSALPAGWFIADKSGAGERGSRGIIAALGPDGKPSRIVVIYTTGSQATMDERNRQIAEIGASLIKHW
T2 sequence (Q9BYF1 18-740 limits assumed): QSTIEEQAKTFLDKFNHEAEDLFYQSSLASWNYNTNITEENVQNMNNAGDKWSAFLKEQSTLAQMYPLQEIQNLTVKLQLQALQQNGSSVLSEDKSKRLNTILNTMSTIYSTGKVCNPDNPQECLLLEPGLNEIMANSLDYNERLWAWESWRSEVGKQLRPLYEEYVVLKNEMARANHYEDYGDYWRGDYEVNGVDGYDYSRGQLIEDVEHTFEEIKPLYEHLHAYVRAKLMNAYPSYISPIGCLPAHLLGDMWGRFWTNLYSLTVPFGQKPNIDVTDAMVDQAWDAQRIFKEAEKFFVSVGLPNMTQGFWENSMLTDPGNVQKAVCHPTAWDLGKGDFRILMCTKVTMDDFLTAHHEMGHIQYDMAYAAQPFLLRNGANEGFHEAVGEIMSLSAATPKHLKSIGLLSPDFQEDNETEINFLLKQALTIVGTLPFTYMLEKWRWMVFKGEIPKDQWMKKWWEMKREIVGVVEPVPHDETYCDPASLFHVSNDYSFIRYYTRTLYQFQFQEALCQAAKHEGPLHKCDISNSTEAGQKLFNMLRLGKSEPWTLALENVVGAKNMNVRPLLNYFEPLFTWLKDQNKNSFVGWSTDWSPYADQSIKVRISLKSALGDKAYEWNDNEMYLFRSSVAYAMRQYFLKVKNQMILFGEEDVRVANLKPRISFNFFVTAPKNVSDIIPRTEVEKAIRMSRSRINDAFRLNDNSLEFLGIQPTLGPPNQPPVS
T1 sequence (P04190 31-257): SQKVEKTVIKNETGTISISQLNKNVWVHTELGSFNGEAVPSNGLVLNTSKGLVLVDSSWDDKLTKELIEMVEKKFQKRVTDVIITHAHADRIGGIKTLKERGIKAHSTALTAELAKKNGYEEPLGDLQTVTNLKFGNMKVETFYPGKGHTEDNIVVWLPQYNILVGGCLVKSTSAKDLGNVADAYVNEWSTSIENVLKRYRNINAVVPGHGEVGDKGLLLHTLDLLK

`CN1CCN(NC(=O)CN2C(=O)C(=Cc3c(Cl)ccc(Cl)c3Cl)SC2=S)CC1` (mixture of isomers) [ML302, N-(4-Methylpiperazin-1-yl)-2-(4-oxo-2-thioxo-5-(2,3,6-trichlorobenzylidene)thiazolidin-3-yl)acetamide]: the IC50 in assay [1] was 500 ± 150 nM; in assay [3], 548 nM; in assay [4], 660 ± 250 nM; in assay [6] (IC50, VIM-2), 490 ± 180 nM; in assay [6] (IC50 value against VIM-2 obtained using this assay, VIM-2), 498 ± 18 nM. Also, the “RA (residual activity)” value in assay [2] (100 μM) is on record as 73 ± 9 ^ %. Moreover, the remaining activity at 100 µM in assay [2] (100 μM) is ~75%; in assay [5], 98.6 ± 7.1%. For the same molecule, the Inhibition verdict entry in assay [5] is “N.I”.
Regarding `O=C(O)C(S)=Cc1c(Cl)ccc(Cl)c1Cl` (racemic) [ML302F, 2-Mercapto-3-(2,3,6-trichlorophenyl)acrylic acid], the half-inhibitory concentration (IC50) was 20 nM in assay [1]; 440 ± 190 nM in assay [4]; 300 ± 90 nM in assay [6] (IC50, VIM-2). Moreover, the Inhibition verdict result in assay [2] and in assay [5] was “N.I” in each case. Moreover, the results for the remaining activity at 100 µM in assay [2] (100 μM) and in assay [5] were 99 ± 4% and 99.6 ± 3.1%, respectively.
As for `C[C@@H](O)[C@H]1C(=O)N2C(C(=O)O)=C(S[C@@H]3CN[C@H](C(=O)N(C)C)C3)[C@H](C)[C@H]12` [Meropenem, meropenem], the minimum inhibitory concentration (MIC) in assay [7] and in assay [8] was 16 µg/mL each time.
